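Protocol summary: plate cells (96-well), add compound at 5 concentrations, incubate 48 h, interpolate endpoints linearly. GI50 is the concentration that inhibits growth by half. TGI: concentration producing complete growth inhibition.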
Columns and labels:
Test in all cases: growth of human tumour cells (NCI), 48 h
NCI/ADR-RES ovarian = test system: NCI/ADR-RES ovarian
PC-3 prostate = test system: PC-3 prostate
MDA-N = test system: MDA-N

Structure (SMILES) | GI50 (NCI/ADR-RES ovarian) [µM] | TGI (NCI/ADR-RES ovarian) [µM] | GI50 (PC-3 prostate) [µM] | TGI (PC-3 prostate) [µM] | TGI (MDA-N) [µM]
NC(=S)N=Nc1c(O)c2ccccc2c2ccccc12 | 4.3 | 27 | 9.05 | 66.6 | 
COc1ccccc1NS(=O)(=O)c1ccc2oc(SC(C)C)nc2c1 | 14.8 | 84.1 | 12.4 | 45.7 | 
C=C(C)C(=O)O[C@@H]1C/C(C)=C\[C@H](OC(C)=O)C[C@](C)(O)/C=C2/OC(=O)C(COC(C)=O)=C21 |  |  |  | 3.63 | 1.98
COc1ccc(Nc2nc3cc(N)cc(N)c3nc2-c2ccccc2)cc1OC | 17.2 | 42.7 | 14 | 36 | 
Cc1ccc(-c2nc([P+](c3ccccc3)(c3ccccc3)c3ccccc3)c(Nc3ccccc3)o2)cc1 | 1.11 | 2.58 | 0.433 | 1.83 | 
CC12CCC3c4cc(Br)c(O)c(Br)c4CCC3C1CCC2O (stereo unspecified) |  | 62.5 |  | > 100 | 14.2
CCOC(=O)c1ccc2c(c1)[n+](=O)c(C(C)=O)c(C(F)(F)F)n2[O-] | 1.89 | 5.98 | 0.885 | 2.38 | 
O=C(CC(=O)c1cccc(Cl)c1)c1cccc(Cl)c1 | 2.06 | 6.35 | 2.41 | > 100 | 
Nc1nc(N)c2cc(Sc3cccc(C(F)(F)F)c3)ccc2n1 |  | 14.8 | 0.698 | 14.9 | 13.9
COc1cc(NCCN=C(N)NC(N)=NC(C)C)c2ncccc2c1 | > 100 | > 100 | 8.96 | > 100 | 
CNS(=O)(=O)OCC1OC(n2cnc3c(N)ncnc32)C(O)C1O (stereo unspecified) | > 100 | > 100 | > 100 | > 100 | 
Cc1cn(-c2ccc(S(C)(=O)=O)cc2)c(-c2ccc(Cl)cc2)n1 | > 100 | > 100 | > 100 | > 100 | 
Nc1nc(=O)n([C@@H]2CS[C@H](CO)O2)cc1F | > 100 | > 100 | > 100 | > 100 | 
CN(C)c1ccc(C(c2ccc(Cl)cc2)c2ccc(N(C)C)cc2)cc1 |  | > 100 |  | > 100 | > 100
Cc1ccc(-c2nc(-c3cn(C)c4ncccc34)cs2)cc1 | 1.42 | 6.8 | 4.49 | > 44.1 | 
Cc1cccc(C)c1Nc1nc(C)c(C(=O)CC(=O)C(=O)Nc2c(C(C)C)cccc2C(C)C)s1 |  | > 100 |  | > 100 | > 100
CCOC(=O)c1cnn2c3ccccc3n(S(=O)(=O)c3ccc(OC)cc3)c12 | 0.23 | 24.5 | 0.375 | > 100 | 
CCN1C[C@]2(COC)[C@H](O)C[C@H](OC)[C@]34C1[C@H]([C@H](OC)[C@H]23)[C@]1(OC(C)=O)[C@H]2[C@@H](OC(=O)c3ccccc3)[C@](O)(C[C@H]24)[C@@H](OC)[C@@H]1O |  | > 100 |  | > 100 | 
Cc1cc(Nc2cc(N3CCN(C)CC3)nc(Sc3ccc(NC(=O)C4CC4)cc3)n2)n[nH]1 | > 10 | > 10 | 4.24 | > 10 | 
CCCCCCCC(=O)OCC(=O)[C@]1(O)Cc2c(O)c3c(c(O)c2[C@@H](OC2CC(N)C(O)C(C)O2)C1)C(=O)c1c(OC)cccc1C3=O (stereo partly specified) | 1.67 | 4.41 |  |  | 
O=C(c1ccccc1)n1c(-c2ccccc2)cs/c1=N\S(=O)(=O)c1ccc(N2N=C3c4ccccc4CC3C2c2cccs2)cc1 (stereo unspecified) | > 100 | > 100 | 39.2 | > 100 | 
COc1cc2c(=O)n(CCN(C)C)c3c4cc5c(cc4ccc3c2cc1OC)OCO5 | 0.256 | > 50 | 0.338 | 6.16 | 
CCOC(=O)/C=C/C(=O)[C@H](CC(C)C)NC(=O)[C@H](Cc1ccccc1)NC(=O)OCc1ccccc1 | 12.3 | 93.1 | 4.39 | 16.4 | 
COc1cc(/C=C/c2cc(/C=C/c3ccc(O)c(OC)c3)n(C(=O)Nc3ccc(Cl)cc3)n2)ccc1O | 0.363 | 3.68 | 0.497 | 5.78 | 
Cc1cnc(Nc2ccc(N3CCN(C)CC3)cc2)nc1Nc1ccc(Cl)c(NS(=O)(=O)C(C)(C)C)c1 | 0.511 | 6.09 | 0.408 | 16.9 | 

Reference: PubChem BioAssay (NCI)
